According to ChEMBL document CHEMBL1157210, “Neurosteroid analogues. 12. Potent enhancement of GABA-mediated chloride currents at GABAA receptors by ent-androgens” (Eur J Med Chem, 2008):

How the values were obtained:
[1] = Displacement of […] from GABAA receptor in rat brain; format: tissue-based
Xenopus laevis [2] = assay: Anesthetic effect in Xenopus laevis assessed as loss of righting response; format: functional, organism-based
Xenopus laevis [3] = assay: Anesthetic effect in Xenopus laevis assessed as loss of swimming response; format: functional, organism-based
Rattus norvegicus [4] = species on record: Rattus norvegicus; assay: Activity at rat GABAA alpha-1-beta-2-gamma-2L receptor expressed in Xenopus laevis assessed as ratio of current in treated to non-treated oocyte at 0.1 uM by electrophysiology
Rattus norvegicus [5] = species on record: Rattus norvegicus; assay: Activity at rat GABAA alpha-1-beta-2-gamma-2L receptor expressed in Xenopus laevis expressed in assessed as ratio of current in treated to non-treated oocyte at 1 uM by electrophysiology
Rattus norvegicus [6] = species on record: Rattus norvegicus; assay: Activity at rat GABAA alpha-1-beta-2-gamma-2L receptor expressed in Xenopus laevis expressed in assessed as ratio of current in treated to non-treated oocyte at 10 uM by electrophysiology
Rattus norvegicus [7] = species on record: Rattus norvegicus; assay: Activity at rat GABAA alpha-1-beta-2-gamma-2L receptor expressed in Xenopus laevis assessed as ratio of current in drug-treated to GABA-treated oocyte at 10 uM by electrophysiology

SMILES | IC50 [1] | EC50 (Xenopus laevis [2]) | EC50 (Xenopus laevis [3]) | Ratio (Rattus norvegicus [4]) | Ratio (Rattus norvegicus [5]) | Ratio (Rattus norvegicus [6]) | Ratio (Rattus norvegicus [7])
C[C@]12CC[C@@H](O)C[C@H]1CC[C@@H]1[C@@H]2CC[C@@]2(C)[C@H]1CC[C@@]21CO1 | 220 nM | 990 nM | 1730 nM | 1.28 | 5.17 | 25.4 | 0.03
CC(=O)[C@@H]1CC[C@H]2[C@@H]3CC[C@H]4C[C@@H](O)CC[C@@]4(C)[C@H]3CC[C@@]12C | 280 nM | 70 nM | 890 nM | 1.28 | 2.82 | 7.92 | 0.06
C[C@]12CC[C@@H](O)C[C@@H]1CC[C@@H]1[C@@H]2CC[C@]2(C)C(=O)CC[C@@H]12 [ANDROSTERONE] | 410 nM | 3380 nM |  | 0.97 | 1.41 | 5.44 | 0.02
C[C@@]12CC[C@H](O)C[C@@H]1CC[C@@H]1[C@@H]2CC[C@]2(C)[C@H]1CC[C@]21CO1 | 390 nM | 1730 nM | 2760 nM | 1.86 | 10.5 | 20.8 | 0.12
C[C@@]12CC[C@H](O)C[C@H]1CC[C@@H]1[C@@H]2CC[C@@]2(C)C(=O)CC[C@@H]12 | 310 nM | 1420 nM | 5480 nM | 1.27 | 3.66 | 18.9 | 0.03
C[C@]12CC[C@@H](O)C[C@@H]1CC[C@@H]1[C@@H]2CC[C@@]2(C)[C@H]1CC[C@@]21CO1 | 110 nM | 1350 nM | 2760 nM | 3.11 | 21.9 | 33.7 | 0.22
C[C@@]12CC[C@H](O)C[C@@H]1CC[C@@H]1[C@@H]2CC[C@@]2(C)C(=O)CC[C@@H]12 | 380 nM | 1970 nM | 8900 nM | 1.4 | 2.34 | 14.1 | 0.09
C[C@@]12CC[C@H](O)C[C@H]1CC[C@@H]1[C@@H]2CC[C@]2(C)[C@H]1CC[C@]21CO1 | 470 nM | 1080 nM | 2710 nM | 2.62 | 15.9 | 26.3 | 0.1
C[C@]12CC[C@@H](O)C[C@H]1CC[C@@H]1[C@@H]2CC[C@]2(C)C(=O)CC[C@@H]12 [ETIOCHOLANOLONE] | 4150 nM |  |  | 0.89 | 0.87 | 1.39 | 0
CC(=O)[C@H]1CC[C@H]2[C@@H]3CC[C@H]4C[C@H](O)CC[C@]4(C)[C@H]3CC[C@]12C [BREXANOLONE] | 74 nM | 420 nM | 5500 nM | 1.26 | 3.89 | 9.65 | 0.37
CC(=O)[C@H]1CC[C@H]2[C@@H]3CC[C@@H]4C[C@H](O)CC[C@]4(C)[C@H]3CC[C@]12C [ELTANOLONE] | 71 nM | 60 nM | 300 nM | 1.2 | 2.82 | 9.77 | 0.06
CC(=O)[C@@H]1CC[C@H]2[C@@H]3CC[C@@H]4C[C@@H](O)CC[C@@]4(C)[C@H]3CC[C@@]12C | 1910 nM | 970 nM | > 5000 nM | 0.95 | 0.92 | 1.17 | 0.02
